Laboratory results from patent publication US9492508B2, “Parathyroid hormone analogs and uses thereof” (The General Hospital Corporation, priority 2010, dated 2016).
Ends that are not written are not given here.

Assays:
human PTHR1 (R0) = molecular target: T1, human PTHR1 (R0) (Homo sapiens, UniProt Q03431); assay: Competition binding, R0 conformation of human PTHR1 (COS-7 membranes, 125I-PTH(1-34) tracer, GTPγS); conditions: for R0 binding at human PTH receptor as compared to PTH(1-34): FIG. 5A
T1 construct: expressed in transfected cells; host or cells: COS-7 cells (membranes)
T1 sequence (Q03431 27-593): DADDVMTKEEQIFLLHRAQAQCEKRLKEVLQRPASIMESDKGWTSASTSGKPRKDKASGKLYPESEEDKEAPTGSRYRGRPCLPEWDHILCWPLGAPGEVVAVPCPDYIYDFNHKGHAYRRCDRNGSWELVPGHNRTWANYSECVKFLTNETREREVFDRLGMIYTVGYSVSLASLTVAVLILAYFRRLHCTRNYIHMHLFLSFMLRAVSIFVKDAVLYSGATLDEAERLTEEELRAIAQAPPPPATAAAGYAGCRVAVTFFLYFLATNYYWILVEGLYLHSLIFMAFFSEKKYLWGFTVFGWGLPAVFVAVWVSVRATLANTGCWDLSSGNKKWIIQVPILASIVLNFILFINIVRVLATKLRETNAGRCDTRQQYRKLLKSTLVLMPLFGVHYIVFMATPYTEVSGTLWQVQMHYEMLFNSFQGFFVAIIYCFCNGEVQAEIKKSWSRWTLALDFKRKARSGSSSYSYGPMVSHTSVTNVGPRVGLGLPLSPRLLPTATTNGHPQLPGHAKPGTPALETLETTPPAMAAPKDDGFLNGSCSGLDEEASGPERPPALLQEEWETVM
Description: (§1) Briefly, the R^0 form of the receptor can be favored by addition of the non-hydrolyzable nucleotide analog GTPγS. The RG form can be favored, for example, by co-transfection of cells with a negative dominant Gαs subunit. […] Data are means of four experiments, each performed in duplicate. Curves were fit to the data using Graph-Pad Prism 4.0.
Here, competition binding assays for the R^0 and RG PTHR1 conformation were performed in membranes prepared from transfected COS-7 cells, as described by Dean et al., Mol Endocrinol 22:156-66, 2008. Data are means of three experiments, each performed in duplicate. Curves were fit to the data using Graph-Pad Prism 4.0.

rat PTHR1 (R0) = molecular target: T2, rat PTHR1 (R0) (Rattus norvegicus, UniProt P25961); assay: Competition binding, R0 conformation of rat PTHR1; conditions: for IC50: R0 conformation, mean of 4 experiments, read-out: Binding rat PTHR1 IC50 (Log M) R0 (converted)
T2 sequence (P25961 27-591): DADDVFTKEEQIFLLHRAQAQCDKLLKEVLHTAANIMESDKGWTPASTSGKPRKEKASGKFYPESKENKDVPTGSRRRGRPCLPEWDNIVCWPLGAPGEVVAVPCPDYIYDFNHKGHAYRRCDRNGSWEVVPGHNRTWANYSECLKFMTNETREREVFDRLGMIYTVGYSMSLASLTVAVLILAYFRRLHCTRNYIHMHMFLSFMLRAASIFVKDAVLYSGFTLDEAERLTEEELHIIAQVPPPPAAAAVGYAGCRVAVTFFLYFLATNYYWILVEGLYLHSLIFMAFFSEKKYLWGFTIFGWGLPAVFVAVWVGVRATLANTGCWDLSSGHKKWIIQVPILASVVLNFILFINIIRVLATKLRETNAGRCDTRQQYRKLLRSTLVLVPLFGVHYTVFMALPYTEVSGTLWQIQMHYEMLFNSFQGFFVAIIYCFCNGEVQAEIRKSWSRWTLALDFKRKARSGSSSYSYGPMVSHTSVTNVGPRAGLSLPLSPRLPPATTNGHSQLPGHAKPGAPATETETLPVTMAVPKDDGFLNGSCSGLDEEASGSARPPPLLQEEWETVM
From the text: as §1

MC3T3-E1 cells = assay: cAMP response following ligand wash-out in MC3T3-E1 cells; type: cell-based, mouse; conditions: 100 nM ligand 5 min, then wash-out; FIGS. 7A, 7B
Description: Cells were treated at room temperature with vehicle or the indicated ligand (100 nM) for five minutes; for each ligand duplicate wells were used to obtain the initial (maximum cAMP values); in these wells, cells were co-incubated with ligand and IBMX. After five minutes of initial treatment, the buffer was removed, and, for the initial wells, the reactions were terminated by addition of 50 mM HCl. In the other wells, the cells were rinsed three times with buffer, and incubated in buffer for varying times, as indicated on the abscissa; after which the buffer was replaced by a buffer containing IBMX, and the cells were incubated for another five minutes. After that, the buffer was removed and the reactions were terminated by addition of 50 mM HCl. The cAMP contents of the HCl lysates were then determined by RIA.

[1] = Blood Ca++ responses in mice; type: in vivo, mice (C57 BL/6); conditions: 5 nmol/kg s.c., 4, 6, 8 and 24 hours
Description: Blood Ca^++ responses in mice were also assayed. Mice (C57 BL/6) were injected subcutaneously with either vehicle or the indicated ligand to give a final dose of 5 nmol/kg body weight, and blood was withdrawn via the tail at times after injection and assessed for Ca^++ concentration using a Bayer Rapid Lab model 348 blood analyzer. […] A similar experiment using 10 nmol/kg by intravenous injection was also conducted with similar results (FIGS. 8C and 8D).

[2] = Hypercalcemic assay in cynomolgus monkeys (serum and urinary calcium and phosphate); type: in vivo, cynomolgus monkey; conditions: for serum calcium: 0.25 nmol/kg intravenous, FIG. 12A; for serum calcium, subcutaneous two doses: 2.5 or 10 nmol/kg subcutaneous, FIG. 15A
Description: The effects of the SP-PTH (SEQ ID NO:11) and SP-PTH-AAK (SEQ ID NO:4) (“SP-AAK”) on serum and urinary calcium and phosphate levels were tested in cynomolgus monkeys. Briefly, three- or four-year-old, male cynomolgus monkeys (HAMRI Co., Ltd., Ibaraki, Japan) were measured for their body weight. Blood was collected into tubes. Monkeys received intravenous or subcutaneous administration of each polypeptide at a dose of 0.3 ml/kg. Polypeptide concentrations in stock solution were adjusted by dilution with 25 mmol/L phosphate-citrate buffer/100 mmol/L NaCl/0.05% Tween 80 (pH.5.0) (PC-buffer). All polypeptides were allowed to stand on ice immediately before administration. Polypeptides were administered to groups of three monkeys each respectively. At 1, 2, 4, and 8 hours after administration, blood was collected by saphenous vein to monitor the time course of calcium and phosphorus levels (FIG. 11A).
Similar experiments were performed using subcutaneous injection of the polypeptides using two different doses (2.5 nmol/kg or 10 nmol/kg; FIG. 14). […] Reductions in serum inorganic phosphate were also observed (FIGS. 15B and 15C). […] Urine calcium and phosphate data were also collected. Urine was collected in 24-hour intervals prior to injection (T=0) and at times thereafter and assessed for Ca (FIGS. 15E and 15G), Pi (FIGS. 15F and 15H) and creatinine; [Ca] and [PI] are expressed as ratios to [creatinine]. FIGS. 15G and 15H present the change from the pre-injection values. Data are means±s.e.m.; n=3/group.

AVAEIQLMHQRAKWIQDLRRRFFLHHLIAEIHTAEI-OH [SP-PTH, [Ala^1,3,12,Gln^10,Arg^11,Trp^14]PTH(1-14)/PTHrP(15-36)]
R0 binding at human PTH receptor as compared to PTH(1-34) (human PTHR1 (R0)): enhanced R^0 binding | IC50 (human PTHR1 (R0); R0 conformation, mean of 3 experiments, read-out: Binding human PTHR1 IC50 (Log M) R0 (converted)): 1.38 nM | IC50 (rat PTHR1 (R0)): 1.45 nM | cAMP-stimulating activity after ligand wash-out (MC3T3-E1 cells): maintained cAMP-stimulating activity for longer periods of time than PTH(1-34) | blood calcium levels at later time points vs PTH(1-34) or vehicle [1]: increased | serum calcium [2]: increased serum calcium | serum calcium, subcutaneous two doses [2]: increases in serum calcium were observed in a dose dependent manner

AVAEIQLMHQRAKWIQDARRRAFLHKLIAEIHTAEI-OH [SP-PTH-AAK, [Ala^1,3,12,18,22,Gln^10,Arg^11,Trp^14,Lys^26]PTH(1-14)/PTHrP(15-36)]
R0 binding at human PTH receptor as compared to PTH(1-34) (human PTHR1 (R0)): enhanced R^0 binding | binding to R0 form of rat PTHR1, comparison in words (rat PTHR1 (R0); FIG. 1A): strongest binding | stronger binding to the R0 form of the rat PTH receptor as compared to PTH(1-34) (rat PTHR1 (R0); FIG. 1A): greater than two orders of magnitude increase in binding | EC50 (rat PTHR1 (R0); FIG. 1A, read-out: log EC50, binding to the R0 form of the rat PTH receptor (converted)): 0.2 nM | IC50 (rat PTHR1 (R0)): 0.209 nM | cAMP-stimulating activity after ligand wash-out (MC3T3-E1 cells): maintained cAMP-stimulating activity for longer periods of time than PTH(1-34) | blood calcium levels at later time points vs PTH(1-34) or vehicle [1]: increased | serum calcium [2]: increased serum calcium | serum calcium, subcutaneous two doses [2]: increases in serum calcium were observed in a dose dependent manner
